Columns and labels:
tau protein = biological target: T1, tau protein (Homo sapiens, UniProt P10636); test: Tau-BiFC cell model: inhibition of tau protein aggregation; type: cell-based; settings: for remaining activity at 10 µM: 48 h, compound 10 μM, BiFC fluorescence, Forskolin-only group = 100% tau protein-aggregated state, read-out: Response (% @10 μM); for IC50: Tau BiFC in cells, with Forskolin 30 μM, 48 hours
T1 construct: fused on or other part: Split fluorescent-protein halves for BiFC are fused to tau; In the published tau-BiFC line these are Venus VN173 and VC155
T1 sequence (P10636 2-441 isoform P10636-8 limits assumed): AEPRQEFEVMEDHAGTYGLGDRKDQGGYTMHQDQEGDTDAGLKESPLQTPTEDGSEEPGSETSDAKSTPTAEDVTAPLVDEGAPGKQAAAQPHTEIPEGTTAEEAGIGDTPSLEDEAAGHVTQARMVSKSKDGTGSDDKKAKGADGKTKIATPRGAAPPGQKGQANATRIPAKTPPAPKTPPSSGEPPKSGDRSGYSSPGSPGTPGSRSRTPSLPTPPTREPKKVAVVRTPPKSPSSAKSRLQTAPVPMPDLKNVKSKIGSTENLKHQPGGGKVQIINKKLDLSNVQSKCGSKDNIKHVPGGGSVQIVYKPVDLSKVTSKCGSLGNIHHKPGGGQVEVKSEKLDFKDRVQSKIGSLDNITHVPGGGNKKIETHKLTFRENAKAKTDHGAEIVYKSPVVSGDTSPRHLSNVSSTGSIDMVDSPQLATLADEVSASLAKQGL
Summary of the method: (§1)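 Tau-BiFC cells were exposed for 48 h to compound (1, 3, 10 μM for screening; 0.03–30 μM for dose-response) plus 30 μM Forskolin to induce aggregation. BiFC fluorescence was normalised to Forskolin-only minus untreated controls, with IC50 from nonlinear regression. Viability was Hoechst-stained nuclei counts relative to Forskolin-only wells.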

Tau-BiFC cells = test: Cell viability (cytotoxicity) in tau-BiFC cells, count of stained nuclei; type: cell-based; settings: compound 10 μM; Forskolin-only group = 100% cell viability
Summary of the method: as §1

Row | Structure (SMILES) | remaining activity at 10 µM (tau protein) [%] | Cell viability (% @10 μM) (Tau-BiFC cells) [%] | IC50 (tau protein) [µM]
1 | N#CC(C#N)=NNc1ccc(Oc2ccncc2)c(F)c1 [Compound 80, (3-fluoro-4-(pyridin-4-yloxy)phenyl)carbonohydrazonoyl dicyanide] | 68 | 112.3 | 
2 | Cc1cc(NN=C(C#N)C#N)ccc1Oc1cncnc1 [Compound 81, (3-methyl-4-(pyrimidin-5-yloxy)phenyl)carbonohydrazonoyl dicyanide] | 0 | 116.2 | 0.55
3 | N#CC(C#N)=NNc1ccc(Oc2cncnc2)c(F)c1 [Compound 82, (3-fluoro-4-(pyrimidin-5-yloxy)phenyl)carbonohydrazonoyl dicyanide] | 0 | 126.4 | 2.96
4 | N#CC(C#N)=NNc1ccc(Oc2ccccn2)cc1 [Compound 83, (4-(pyridin-2-yloxy)phenyl)carbonohydrazonoyl dicyanide] | 0 | 104 | 1.14
5 | N#CC(C#N)=NNc1ccc(Oc2cnccn2)cc1 [Compound 84, (4-(pyrazin-2-yloxy)phenyl)carbonohydrazonoyl dicyanide] | 0 | 111.4 | 2.12
6 | N#CC(C#N)=NNc1ccc(Oc2cccnc2)cc1 [Compound 85, (4-(pyridin-3-yloxy)phenyl)carbonohydrazonoyl dicyanide] | 0 | 99.1 | 1.58
7 | N#CC(C#N)=NNc1ccc(Oc2ccccc2C#N)cc1 [Compound 86, (4-(2-cyanophenoxy)phenyl)carbonohydrazonoyl dicyanide] | 0 | 72.6 | 2.12
8 | N#CC(C#N)=NNc1ccc(Oc2ccc(C#N)cc2)cc1 [Compound 87, (4-(4-cyanophenoxy)phenyl)carbonohydrazonoyl dicyanide] | 0 | 39.4 | 1.22
9 | N#CC(C#N)=NNc1ccc(Oc2cccc(C#N)c2)cc1 [Compound 88, (4-(3-cyanophenoxy)phenyl)carbonohydrazonoyl dicyanide] | 0 | 44.4 | 3.06
10 | N#CC(C#N)=NNc1ccc(Oc2ccc(C(F)(F)F)nc2)cc1 [Compound 89, (4-(6-(trifluoromethyl)pyridin-3-yloxy)phenyl)carbonohydrazonoyl dicyanide] | 0 | 32.5 | 2.4
11 | N#CC(C#N)=NNc1ccc(Oc2ccc(C(F)(F)F)cn2)cc1 [Compound 90, (4-(5-(trifluoromethyl)pyridin-2-yloxy)phenyl)carbonohydrazonoyl dicyanide] | 0 | 43.7 | 1.29
12 | N#CC(C#N)=NNc1ccc(Oc2ncccn2)cc1 [Compound 91, (4-(pyrimidin-2-yloxy)phenyl)carbonohydrazonoyl dicyanide] | 0 | 117 | 3.12
13 | N#CC(C#N)=NNc1ccc(Oc2cccnn2)cc1 [Compound 92, (4-(pyridazin-3-yloxy)phenyl)carbonohydrazonoyl dicyanide] | 0 | 116.8 | 0.55
14 | N#CC(C#N)=NNc1ccc(Oc2ccccc2F)cc1 [Compound 93, (4-(2-fluorophenoxy)phenyl)carbonohydrazonoyl dicyanide] | 0 | 66.5 | 1.29
15 | N#CC(C#N)=NNc1ccc(Oc2cccc(F)c2)cc1 [Compound 94, (4-(3-fluorophenoxy)phenyl)carbonohydrazonoyl dicyanide] | 0 | 33.6 | 1.28
16 | N#CC(C#N)=NNc1ccc(OCc2ccccc2)nc1 [Compound 95, (6-(benzyloxy)pyridin-3-yl)carbonohydrazonoyl dicyanide] | 0 | 71.9 | 
17 | N#CC(C#N)=NNc1ccc(OCc2ccc(C(F)(F)F)cc2)nc1 [Compound 96, (6-(4-(trifluoromethyl)benzyloxy)pyridin-3-yl)carbonohydrazonoyl dicyanide] | 0 | 27.5 | 0.4
18 | N#CC(C#N)=NNc1ccc(OCc2ccccc2)c(C(F)(F)F)c1 [Compound 97, (4-(benzyloxy)-3-(trifluoromethyl)phenyl)carbonohydrazonoyl dicyanide] | 0 | 27.1 | 0.1

Row | Structure (SMILES) | remaining activity at 10 µM (tau protein) [%] | Cell viability (% @10 μM) (Tau-BiFC cells) [%] | IC50 (tau protein) [µM]
19 | N#CC(C#N)=NNc1ccc(OCc2ccc(C(F)(F)F)cc2)c(C(F)(F)F)c1 [Compound 98, (3-(trifluoromethyl)-4-(4-(trifluoromethyl)benzyloxy)phenyl)carbonohydrazonoyl dicyanide] | 0 | 26.9 | 0.25
20 | Cc1ccc(COc2ccc(NN=C(C#N)C#N)cn2)cc1 [Compound 99, (6-(4-methylbenzyloxy)pyridin-3-yl)carbonohydrazonoyl dicyanide] | 0 | 29.2 | 0.24
21 | N#CC(C#N)=NNc1ccc(OCCc2ccccc2)nc1 [Compound 100, (6-phenethoxypyridin-3-yl)carbonohydrazonoyl dicyanide] | 0 | 39.4 | 0.78
22 | N#CC(C#N)=NNc1ccc(OCCc2ccccc2)c(C(F)(F)F)c1 [Compound 101, (4-phenethoxy-3-(trifluoromethyl)phenyl)carbonohydrazonoyl dicyanide] | 0 | 30.1 | 0.95
23 | COc1ccc(CCOc2ccc(NN=C(C#N)C#N)cn2)cc1 [Compound 102, (6-(4-methoxyphenethoxy)pyridin-3-yl)carbonohydrazonoyl dicyanide] | 0 | 54.5 | 0.96
24 | N#CC(C#N)=NNc1ccc(OCCc2ccc(C(F)(F)F)cc2)nc1 [Compound 103, (6-(4-(trifluoromethyl)phenethoxy)pyridin-3-yl)carbonohydrazonoyl dicyanide] | 0 | 37.9 | 2.35
25 | COc1cc(NN=C(C#N)C#N)ccc1C(=O)Nc1cncc(C)n1 [Compound 105, (3-methoxy-4-(6-methylpyrazin-2-ylcarbamoyl)phenyl)carbonohydrazonoyl dicyanide] | 0 | 142.9 | 0.4
26 | Cc1cnc(NC(=O)c2ccc(NN=C(C#N)C#N)cc2Cl)cn1 [Compound 106, (3-chloro-4-(5-methylpyrazin-2-ylcarbamoyl)phenyl)carbonohydrazonoyl dicyanide] | 0 | 184.9 | 
27 | COc1cc(NN=C(C#N)C#N)ccc1C(=O)Nc1cncc(C)c1 [Compound 107, (3-methoxy-4-(5-methylpyridin-3-ylcarbamoyl)phenyl)carbonohydrazonoyl dicyanide] | 0 | 137.9 | 0.6
28 | COc1cc(NN=C(C#N)C#N)ccc1C(=O)Nc1ccc(C)cc1 [Compound 108, (3-methoxy-4-(p-tolylcarbamoyl)phenyl)carbonohydrazonoyl Dicyanide] | 0 | 121.8 | 1.4
29 | COc1ccc(NC(=O)c2ccc(NN=C(C#N)C#N)cc2OC)cc1 [Compound 109, (3-methoxy-4-(4-methoxyphenylcarbamoyl)phenyl)carbonohydrazonoyl Dicyanide] | 0 | 141.8 | 1.4
30 | Cc1cc(NN=C(C#N)C#N)ccc1NC(=O)c1cscn1 [Compound 111, (3-methyl-4-(thiazole-4-carboxamido)phenyl)carbonohydrazonoyl dicyanide] | 0 | 136.4 | 0.5
31 | N#CC(C#N)=NNc1ccc(NC(=O)c2cscn2)nc1 [Compound 112, (6-(thiazole-4-carboxamido)pyridin-3-yl)carbonohydrazonoyl dicyanide] | 0 | 158.2 | 0.2
32 | N#CC(C#N)=NNc1ccc(NC(=O)c2cocn2)nc1 [Compound 113, (6-(oxazole-4-carboxamido)pyridin-3-yl)carbonohydrazonoyl dicyanide] | 0 | 147 | 0.2
33 | N#CC(C#N)=NNc1ccc(NC(=O)c2cnco2)nc1 [Compound 114, (6-(oxazole-5-carboxamido)pyridin-3-yl)carbonohydrazonoyl dicyanide] | 0 | 149.5 | 1.5
34 | N#CC(C#N)=NNc1ccc(NC(=O)c2ccon2)nc1 [Compound 115, (6-(isoxazole-3-carboxamido)pyridin-3-yl)carbonohydrazonoyl dicyanide] | 0 | 157.6 | 0.6
35 | N#CC(C#N)=NNc1ccc(Oc2nccs2)cc1 [Compound 116, (4-(thiazol-2-yloxy)phenyl)carbonohydrazonoyl dicyanide] | 0 | 124 | 1.4
